According to PubChem BioAssay AID272 (DTP/NCI, 2004):
Records with an inconclusive call do not appear.

Tested on: Lewis lung carcinoma i.m., BDF1 mice, T/C %
Assay: NCI In Vivo Anticancer Drug Screen. Data for tumor model Lewis Lung Carcinoma (intramuscular) in B6D2F1 (BDF1) mice
In short: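 Value is the ratio of a treated-group measurement (T) to the matching vehicle-control measurement (C), using either survival or tumour size in mice bearing transplanted tumours.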

[1] = endpoint: mean tumor weight, dose: 25.0 mg/kg/injection, schedule: Q01DX011 (ip), vehicle: saline, higher = larger tumour
[2] = endpoint: median survival time, dose: 6.25 mg/kg/injection, schedule: Q01DX011 (ip), vehicle: saline, higher = longer survival
[3] = endpoint: median survival time, dose: 12.5 mg/kg/injection, schedule: Q01DX011 (ip), vehicle: saline, higher = longer survival
[4] = endpoint: median survival time, dose: 25.0 mg/kg/injection, schedule: Q01DX011 (ip), vehicle: saline, higher = longer survival
[5] = endpoint: median survival time, dose: 400.0 mg/kg/injection, schedule: Q01DX011 (ip), vehicle: saline, higher = longer survival

## CCC[CH2][Sn](=[S])[CH2]CCC
endpoint: mean tumor weight (est.), dose: 6.25 mg/kg/injection, schedule: Q01DX011 (ip), vehicle: saline with Tween-80, higher = larger tumour
  T/C: 103 % of control
endpoint: mean tumor weight (est.), dose: 12.5 mg/kg/injection, schedule: Q01DX011 (ip), vehicle: saline with Tween-80, higher = larger tumour
  T/C: 77 % of control
endpoint: mean tumor weight (est.), dose: 25.0 mg/kg/injection, schedule: Q01DX011 (ip), vehicle: saline with Tween-80, higher = larger tumour
  T/C: 55 % of control
endpoint: median survival time, dose: 6.25 mg/kg/injection, schedule: Q01DX011 (ip), vehicle: saline with Tween-80, higher = longer survival
  T/C: 102 % of control
endpoint: median survival time, dose: 12.5 mg/kg/injection, schedule: Q01DX011 (ip), vehicle: saline with Tween-80, higher = longer survival
  T/C: 116 % of control
endpoint: median survival time, dose: 25.0 mg/kg/injection, schedule: Q01DX011 (ip), vehicle: saline with Tween-80, higher = longer survival
  T/C: 112 % of control

## CC1OC(=O)C(C2OC2C)=CC1O (centres undefined)
endpoint: mean tumor weight, dose: 6.25 mg/kg/injection, schedule: Q01DX011 (ip), vehicle: saline, higher = larger tumour
  T/C: 93 % of control
endpoint: mean tumor weight, dose: 12.5 mg/kg/injection, schedule: Q01DX011 (ip), vehicle: saline, higher = larger tumour
  T/C: 99 % of control
[1]
  T/C: 78 % of control
[2]
  T/C: 102 % of control
[3]
  T/C: 109 % of control
[4]
  T/C: 107 % of control

## CC(C)NCC(=O)c1ccc(O)c(O)c1
endpoint: mean tumor weight (est.), dose: 42.5 mg/kg/injection, schedule: Q01DX011 (ip), vehicle: saline, higher = larger tumour
  T/C: 90 % of control
endpoint: mean tumor weight (est.), dose: 85.0 mg/kg/injection, schedule: Q01DX011 (ip), vehicle: saline, higher = larger tumour
  T/C: 93 % of control
endpoint: median survival time, dose: 42.5 mg/kg/injection, schedule: Q01DX011 (ip), vehicle: saline, higher = longer survival
  T/C: 120 % of control
endpoint: median survival time, dose: 85.0 mg/kg/injection, schedule: Q01DX011 (ip), vehicle: saline, higher = longer survival
  T/C: 90 % of control

## COC(=O)CC(OC)c1nc(C(=O)OC)c(C)c(=O)[nH]1 (centres undefined)
endpoint: median survival time, dose: 8.0 mg/kg/injection, schedule: Q01DX009 (ip), vehicle: Klucel (hydroxypropylcellulose) (HPC), higher = longer survival
  T/C: 114 % of control
endpoint: median survival time, dose: 16.0 mg/kg/injection, schedule: Q01DX009 (ip), vehicle: Klucel (hydroxypropylcellulose) (HPC), higher = longer survival
  T/C: 123 % of control
endpoint: median survival time, dose: 32.0 mg/kg/injection, schedule: Q01DX009 (ip), vehicle: Klucel (hydroxypropylcellulose) (HPC), higher = longer survival
  T/C: 88 % of control

## CCCC(=O)Nc1ncnc2c1ncn2C1OC2COP(=O)(O)OC2C1OC(=O)CCC (centres undefined)
[1]
  T/C: 107 % of control
endpoint: mean tumor weight, dose: 50.0 mg/kg/injection, schedule: Q01DX011 (ip), vehicle: saline, higher = larger tumour
  T/C: 106 % of control
endpoint: mean tumor weight, dose: 100.0 mg/kg/injection, schedule: Q01DX011 (ip), vehicle: saline, higher = larger tumour
  T/C: 114 % of control
endpoint: mean tumor weight, dose: 200.0 mg/kg/injection, schedule: Q01DX011 (ip), vehicle: saline, higher = larger tumour
  T/C: 96 % of control
endpoint: mean tumor weight, dose: 400.0 mg/kg/injection, schedule: Q01DX011 (ip), vehicle: saline, higher = larger tumour
  T/C: 90 % of control
[4]
  T/C: 118 % of control
endpoint: median survival time, dose: 50.0 mg/kg/injection, schedule: Q01DX011 (ip), vehicle: saline, higher = longer survival
  T/C: 118 % of control
endpoint: median survival time, dose: 100.0 mg/kg/injection, schedule: Q01DX011 (ip), vehicle: saline, higher = longer survival
  T/C: 100 % of control
[5]
  T/C: 104 % of control

## OC1CCCC2CCC[N-]C12.OC1CCCC2CCC[N-]C12.[O]=[V][OH] (centres undefined)
endpoint: mean tumor weight (est.), dose: 6.25 mg/kg/injection, schedule: Q01DX011 (ip), vehicle: saline, higher = larger tumour
  T/C: 86 % of control
endpoint: mean tumor weight (est.), dose: 12.5 mg/kg/injection, schedule: Q01DX011 (ip), vehicle: saline, higher = larger tumour
  T/C: 70 % of control
endpoint: mean tumor weight (est.), dose: 25.0 mg/kg/injection, schedule: Q01DX011 (ip), vehicle: saline, higher = larger tumour
  T/C: 50 % of control
[2]
  T/C: 101 % of control
[3]
  T/C: 107 % of control
[4]
  T/C: 107 % of control

## CC(C)[C@](O)(C(=O)OCC1=CC[N+]2([O-])CC[C@@H](O)[C@@H]12)[C@H](C)O (some centres undefined)
endpoint: mean tumor weight (est.), dose: 200.0 mg/kg/injection, schedule: Q01DX011 (ip), vehicle: saline, higher = larger tumour
  T/C: 76 % of control
endpoint: mean tumor weight (est.), dose: 400.0 mg/kg/injection, schedule: Q01DX011 (ip), vehicle: saline, higher = larger tumour
  T/C: 78 % of control
endpoint: mean tumor weight, dose: 50.0 mg/kg/injection, schedule: Q01DX011 (ip), vehicle: water, higher = larger tumour
  T/C: 78 % of control
endpoint: mean tumor weight, dose: 100.0 mg/kg/injection, schedule: Q01DX011 (ip), vehicle: water, higher = larger tumour
  T/C: 44 % of control
endpoint: mean tumor weight, dose: 200.0 mg/kg/injection, schedule: Q01DX011 (ip), vehicle: water, higher = larger tumour
  T/C: 56 % of control
endpoint: mean tumor weight, dose: 400.0 mg/kg/injection, schedule: Q01DX011 (ip), vehicle: water, higher = larger tumour
  T/C: 47 % of control
endpoint: median survival time, dose: 200.0 mg/kg/injection, schedule: Q01DX011 (ip), vehicle: saline, higher = longer survival
  T/C: 101 % of control
[5]
  T/C: 101 % of control

## N[C@H](C(=O)O)[C@@H]1CC(Cl)=NO1
endpoint: median survival time, dose: 1.0 mg/kg/injection, schedule: Q01DX013 (ip), vehicle: saline, higher = longer survival
  T/C: 101 % of control
endpoint: median survival time, dose: 2.0 mg/kg/injection, schedule: Q01DX013 (ip), vehicle: saline, higher = longer survival
  T/C: 100 % of control
